Results as given in paper PMC7913237, “Small-Molecule Anti-HIV-1 Agents Based on HIV-1 Capsid Proteins” (Biomolecules, 2021).
Read-outs that look alike come from different tables or passages of the source.

What was measured:
Type in all cases: cell-based
X4-HIV-1 (NL4-3 strain) = experiment: Anti-HIV activity: protection against HIV-1 (NL4-3 strain)-induced cytopathogenicity in MT-4 cells, MTT assay; conditions: for EC50: 50% protection from HIV-1 (NL4-3 strain)-induced cytopathogenicity in MT-4 cells, 5 days, mean or mean ± SD; for inhibition at 25 µM: Human immunodeficiency virus 1, NL43, MT4, HIV-1 (NL4-3)-induced cytopathogenicity in MT-4 cells, printed in EC50 column; for anti-HIV activity (in words): summary of MTT assay results
Method: (§1) For virus preparation, 293T/17 cells (Invitrogen), which are maintained in Dulbecco’s modified Eagle medium (DMEM) containing 10% FBS, in a T-75 flask were transfected with 10 μg of the pNL4-3 construct by the calcium phosphate method. The supernatant was collected 48 h after transfection, passed through a 0.45 μm filter, and stored at −80 °C as a stock virus. Inhibitory activities of test compounds against X4-HIV-1 (NL4-3 strain)-induced cytopathogenicity in MT-4 cells, which are maintained in RPMI-1640 containing 10% FBS, were assessed by the MTT assay. Various concentrations of test compound solutions were added to HIV-1-infected MT-4 cells at multiplicity of infection (MOI) of 0.001, and placed in wells of a 96-well microplate. The test compounds and the reference compounds such as AZT and AMD3100 were diluted by two-fold and five-fold, respectively. After 5 days’ incubation at 37 °C in a CO2 incubator, the number of viable cells was determined by the MTT assay. Cytotoxicities of the test compounds were determined based on reduction of the viability of MT-4 cells by the MTT assay. The p24 antigen content in the culture supernatant was measured using HIV-1 p24 antigen enzyme-linked immunosorbent assay (ELISA) kit according to manufacturer’s instructions (Zeptometrix, Buffalo, NY, USA). A reverse transcriptase inhibitor, AZT, a CXCR4 antagonist, AMD3100 (Sigma Aldrich, St. Louis, MO, USA) were employed as positive control compounds with anti-HIV activity.
(§2) The anti-HIV activity of the synthesized compounds was assessed based on protection against HIV-1 (NL4-3 strain)-induced cytopathogenicity in MT-4 cells by an MTT assay. The cytotoxicity of these compounds was determined based on reduction of the viability of MT-4 cells determined by an MTT assay.

[1] = Cytotoxicity: reduction of the viability of MT-4 cells, MTT assay; conditions: human, MT-4 cells, 50% reduction of the viability of MT-4 cells
Method: as §1, §2

[2] = tested on: HIV-1 (NL4-3 strain) p24 antigen production; experiment: microbe, parasite or virus in culture
Method: as §1
These compounds were also evaluated by a different method, using an enzyme-linked immune sorbent assay (ELISA) based on their inhibitory effect against the viral p24 antigen expression in NL4-3 strain-infected MT-4 cells.

MT-4 cells = experiment: Cytotoxicity: reduction of the viability of MT-4 cells, MTT assay; conditions: for CC50: 50% reduction of the viability of MT-4 cells; for cytotoxicity (in words): MT-4 cells MTT assay; for concentration below which no cytotoxicity was exhibited: MT-4 cells
Method: as §1, §2

[3] = Human immunodeficiency virus 1, NL43, MT4, 120 h
[4] = Human immunodeficiency virus 1, NL43, MT4, read-out: p24 ELISA EC50, 50% inhibition of viral p24 antigen production in NL4-3 strain-infected MT-4 cells

| Compound | EC50 (X4-HIV-1 (NL4-3 strain); [3]) | CC50 at 5 days [1] | inhibition at 25 µM (X4-HIV-1 (NL4-3 strain)) | anti-HIV activity (in words) (X4-HIV-1 (NL4-3 strain)) | also measured |
| --- | --- | --- | --- | --- | --- |
| c1cc(CN2CCCNCCNCCCNCC2)ccc1CN1CCCNCCNCCCNCC1 [AMD3100, reference compound] | 0.027 ± 0.0077 µM | > 50 µM |  |  | EC50 [2, 4]: 0.029 µM |
| Cc1cn([C@H]2C[C@H](N=[N+]=[N-])[C@@H](CO)O2)c(=O)[nH]c1=O [AZT, reference compound] |  |  |  |  | EC50 (X4-HIV-1 (NL4-3 strain)): 0.024 ± 0.015 µM; CC50 (MT-4 cells): 79 ± 42 µM; EC50 ([2]; 50% inhibition of viral p24 antigen production in NL4-3 strain-infected MT-4 cells, read-out: p24 ELISA EC50): 0.047 µM |
| CSCC[C@H](C)OC(=O)[C@@H](N)c1ccccc1-c1cccc2ccccc12 [Compound 22] |  | 33 ± 1.5 µM | 31 ± 8.5% | weak anti-HIV activity | cytotoxicity (in words) (MT-4 cells): relatively weak cytotoxicity |
| CSCC[C@H](C)OC(=O)[C@@H](N)c1ccccc1-c1ccc2ccccc2c1 [Compound 24] |  | 30 ± 2 µM | 40 ± 4.6% | weak anti-HIV activity | cytotoxicity (in words) (MT-4 cells): relatively weak cytotoxicity |
| CSCC[C@H](C)OC(=O)[C@@H](N)c1ccccc1-c1coc2ccccc12 [Compound 27] |  | 34 µM | 11% | weak anti-HIV activity | cytotoxicity (in words) (MT-4 cells): relatively weak cytotoxicity |
| CSCC[C@H](C)OC(=O)[C@@H](N)c1ccccc1-c1csc2ccccc12 [Compound 28] |  | 45 µM | 31% | weak anti-HIV activity | cytotoxicity (in words) (MT-4 cells): relatively weak cytotoxicity |
| COCC[C@H](C)OC(=O)[C@@H](N)c1ccccc1-c1c[nH]c2ccccc12 [Compound 30] | 26 ± 2.9 µM | > 50 µM |  | weak anti-HIV activity | concentration below which no cytotoxicity was exhibited (MT-4 cells): ≥ 50 µM |
| C[C@@H](CCSC(C)(C)C)OC(=O)[C@@H](N)c1ccccc1-c1c[nH]c2ccccc12 [Compound 34] | 12 µM | 17 µM |  |  |  |
| CC(C)SCC[C@H](C)OC(=O)[C@@H](N)c1ccccc1-c1c[nH]c2ccccc12 [Compound 35] | 10 µM | 18 µM |  |  |  |
| C[C@@H](CCSc1ccccc1)OC(=O)[C@@H](N)c1ccccc1-c1c[nH]c2ccccc12 [Compound 36] | 11 µM | 17 µM |  |  |  |
| C[C@@H](CCS(C)(=O)=O)OC(=O)[C@@H](N)c1ccccc1-c1c[nH]c2ccccc12 [Compound 38] |  | > 50 µM | 34% | weak anti-HIV activity | concentration below which no cytotoxicity was exhibited (MT-4 cells): ≥ 50 µM |
| CSCC[C@H](C)OC(=O)[C@@H](N)c1ccccc1-c1c[nH]c2ccccc12 [MKN-1 (1)] |  |  |  | high anti-HIV activity | EC50 (X4-HIV-1 (NL4-3 strain)): 4.5 ± 2.3 µM; CC50 (MT-4 cells): 26 ± 8.8 µM; EC50 ([2]; read-out: p24 ELISA EC50, 50% inhibition of viral p24 antigen production in NL4-3 strain-infected MT-4 cells): 8.5 µM |
| CSCC[C@H](C)OC(=O)[C@@H](N)c1ccccc1-c1c[nH]c2ccccc12 [MKN-1A (1A)] | 8 µM | 38 µM |  | significant anti-HIV activity | EC50 [2, 4]: 14 µM |
| CSCC[C@@H](C)OC(=O)[C@@H](N)c1ccccc1-c1c[nH]c2ccccc12 [MKN-1B (1B)] | 24 µM | 37 µM |  | moderate anti-HIV activity | EC50 [2, 4]: 22 µM |
